Key:
Assay in all cases: relative viability (nuclei count vs DMSO), 5 days (fraction); higher = more cells survive
Bleomycin + Lapatinib = compound: CC1=C(N=C(N=C1N)[C@H](CC(=O)N)NC[C@@H](C(=O)N)N)C(=O)N[C@@H]([C@H](C2=CN=CN2)OC3C(C(C(C(O3)CO)O)O)OC4C(C(C(C(O4)CO)O)OC(=O)N)O)C(=O)N[C@H](C)[C@H]([C@H](C)C(=O)N[C@@H]([C@@H](C)O)C(=O)NCCC5=NC(=CS5)C6=NC(=CS6)C(=O)NCCC[S+](C)C)O [Bleomycin] + CS(=O)(=O)CCNCc1ccc(-c2ccc3ncnc(Nc4ccc(OCc5cccc(F)c5)c(Cl)c4)c3c2)o1 [Lapatinib] (partner 2 µM); conditions: main component drawn
Procedure, shortened: (§1)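 Relative viability was taken as the ratio of nuclei in treated wells to nuclei in vehicle wells. Lung cancer cell lines in 1536-well plates received compounds by pin tool one day after seeding, either one drug alone or a fixed anchor-drug dose plus five library-drug doses (not always all listed) in √10 steps. Nuclei were counted on 4× images after 5 days of treatment, and values are medians of duplicate plates.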

Bleomycin + Dasatinib = compound: CC1=C(N=C(N=C1N)[C@H](CC(=O)N)NC[C@@H](C(=O)N)N)C(=O)N[C@@H]([C@H](C2=CN=CN2)OC3C(C(C(C(O3)CO)O)O)OC4C(C(C(C(O4)CO)O)OC(=O)N)O)C(=O)N[C@H](C)[C@H]([C@H](C)C(=O)N[C@@H]([C@@H](C)O)C(=O)NCCC5=NC(=CS5)C6=NC(=CS6)C(=O)NCCC[S+](C)C)O [Bleomycin] + Cc1nc(Nc2ncc(C(=O)Nc3c(C)cccc3Cl)s2)cc(N2CCN(CCO)CC2)n1 [Dasatinib] (partner 0.075 µM); conditions: main component drawn
Procedure, shortened: as §1

Etoposide + Crizotinib = compound: COc1cc([C@@H]2c3cc4c(cc3[C@@H](O[C@@H]3O[C@@H]5CO[C@@H](C)O[C@H]5[C@H](O)[C@H]3O)[C@H]3COC(=O)[C@H]23)OCO4)cc(OC)c1O [Etoposide] + C[C@@H](Oc1cc(-c2cnn(C3CCNCC3)c2)cnc1N)c1c(Cl)ccc(F)c1Cl [Crizotinib] (partner 1 µM)
Procedure, shortened: as §1

Etoposide + Olaparib = compound: COc1cc([C@@H]2c3cc4c(cc3[C@@H](O[C@@H]3O[C@@H]5CO[C@@H](C)O[C@H]5[C@H](O)[C@H]3O)[C@H]3COC(=O)[C@H]23)OCO4)cc(OC)c1O [Etoposide] + O=C(c1cc(Cc2n[nH]c(=O)c3ccccc23)ccc1F)N1CCN(C(=O)C2CC2)CC1 [Olaparib] (partner 8 µM)
Procedure, shortened: as §1

Cell Line	relative viability (Bleomycin + Lapatinib; first compound 0.01 µM)	relative viability (Bleomycin + Lapatinib; first compound 0.03162 µM)	relative viability (Bleomycin + Lapatinib; first compound 0.1 µM)	relative viability (Bleomycin + Lapatinib; first compound 0.3162 µM)	relative viability (Bleomycin + Lapatinib; first compound 1 µM)	relative viability (Bleomycin + Dasatinib; first compound 0.01 µM)	relative viability (Bleomycin + Dasatinib; first compound 0.03162 µM)	relative viability (Bleomycin + Dasatinib; first compound 0.1 µM)	relative viability (Bleomycin + Dasatinib; first compound 0.3162 µM)	relative viability (Bleomycin + Dasatinib; first compound 1 µM)	relative viability (Etoposide + Crizotinib; first compound 0.01 µM)	relative viability (Etoposide + Crizotinib; first compound 0.03162 µM)	relative viability (Etoposide + Crizotinib; first compound 0.1 µM)	relative viability (Etoposide + Crizotinib; first compound 0.3162 µM)	relative viability (Etoposide + Crizotinib; first compound 1 µM)	relative viability (Etoposide + Olaparib; first compound 0.01 µM)	relative viability (Etoposide + Olaparib; first compound 0.03162 µM)	relative viability (Etoposide + Olaparib; first compound 0.1 µM)	relative viability (Etoposide + Olaparib; first compound 0.3162 µM)	relative viability (Etoposide + Olaparib; first compound 1 µM)
NCI-H647	0.353	0.336	0.191	0.0899	0.0986	0.101	0.0923	0.0574	0.039	0.0343	1.05	1.01	0.858	0.298	0.151	0.459	0.516	0.33	0.0871	0.0592
A-427	0.797	0.874	0.776	0.369	0.169	0.53	0.56	0.496	0.137	0.144	0.875	0.837	0.717	0.263	0.153	0.715	0.83	0.588	0.298	0.221
EMC-BAC-2	0.817	0.754	0.719	0.399	0.305	0.293	0.277	0.259	0.144	0.115	0.661	0.527	0.382	0.2	0.161	0.443	0.413	0.352	0.249	0.214
NCI-H460	0.296	0.29	0.0624	0.0161	0.0213	0.362	0.318	0.244	0.0443	0.037	0.708	0.498	0.476	0.0396	0.0142	0.395	0.314	0.247	0.0642	0.047
LCLC-103H						0.382	0.448	0.418	0.316	0.214	1.09	1.02	0.984	1.06	0.988	0.786	0.803	0.77	0.665	0.383
HCC-827	0.197	0.204	0.187	0.173	0.15	0.228	0.24	0.338	0.245	0.225	0.879	0.941	0.662	0.394	0.228	0.685	0.623	0.43	0.16	0.164
NCI-H1355	0.901	1.15	0.837	0.337	0.257	0.668	0.661	0.84	0.252	0.192	0.918	1.15	0.5	0.674	0.306	0.682	0.769	0.574	0.332	0.221
NCI-H1734	0.802	0.854	0.691	0.268	0.184	0.357	0.312	0.348	0.145	0.154	0.647	0.643	0.541	0.497	0.271	0.285	0.607	0.589	0.373	0.263
